Data from patent US5667764A, “Compounds, compositions and methods for binding bio-affecting substances to surface membranes of bio-particles” (Zynaxis, Inc., priority 1992, dated 1997).
Read-outs that look alike come from different tables or passages of the source. Blank lines part the entries; values can stand above or below the compound they belong to.

Assays:
[1] = test system: myointimal thickening; conditions: animal models; cited from earlier work
[2] = test system: membrane ghosts; assay: Membrane binding stability (MBS) assay in membrane ghosts with 5% albumin; conditions: 24 hours, Table II
Excerpt: Determination of Membrane Binding Stability
For example, very stable binding to membranes might be required for applications such as delivery of therapeutic radionuclides to tumor sites, as loss of compound could lead to the radionuclide producing its toxic effect at non-tumor sites. On the other hand, more rapid loss of compound from biomembranes may be desirable for application involving controlled delivery rates of therapeutic agents. Accordingly, there is described hereinbelow an assay for determining MBS under conditions approximating those found in vivo.
In carrying out this assay, approximately physiological concentrations of serum albumin (5%) are used. […] To better approximate the effects of large fluid volumes to which labelled cells are exposed in vivo, the assay for MBS is carried out by suspending a decreasing number of labeled membrane ghosts in a fixed volume of albumin-containing saline. At 24 hours, the total amount of label present is determined by sampling the well mixed suspension; subsequently, the membrane ghosts are pelleted by centrifugation and the amount of label released into the supernatant is determined and expressed as a percent of total label. Percent retention is plotted against number of ghosts per ml. of suspension, and MBS is determined as the area under the curve between 5×10^7 ghosts/ml. and 4×10^8 ghosts/ml.

[3] = test system: red blood cell ghosts (plasma membrane); assay: Membrane retention coefficient (MRC) in red blood cell ghosts; assay type: binding; conditions: 24 hr; Table II
Experimental: Determination of Membrane Retention Coefficient
The membrane retention coefficient (MRC) provides information regarding how well a given compound is retained in the plasma membrane of a cell and is determined as described below.
Generation of red blood cell ghosts for use as a model membrane is achieved by centrifuging whole blood at 300×g for 15 minutes, removal of the plasma and resuspension of the cell pellet in 0.83% (w/v) ammonium chloride. The ghosts are pelleted from the ammonium chloride by centrifuging at 10,000×g for 10 minutes. This ammonium chloride washing procedure is repeated a minimum of five times to insure that complete release of hemoglobin from the cells has occured. The ghosts are labeled with the compound in question at a concentration allowing for detection of the labeled ghosts by instrumental analysis or fluorescent microscopic methods, and at a concentration similar to those that would be used to label cells for a specific application as described above. For the determinations hereinbelow stock solutions of the compounds in question were prepared in ethanol at a molar concentration of 2×10^-3, and working dilutions of the compounds were prepared in iso-osmotic sucrose (52 g/500 ml distilled water). After incubation of the ghosts at an approximate concentration of 1×10^9 ghosts/ml in the working dilutions of the compounds for 10 minutes, the samples were centrifuged at 10,000×g to pellet the ghosts and the staining solution was aspirated from the samples. The labeled ghosts were resuspended in 1 ml of phosphate buffered saline solution containing 10% fetal bovine serum (PBS-FBS). Triplicate 20 ul aliquots were removed from each sample for the determination of the amount of total compound present. The samples were centrifuged as described above and triplicate 20 ul aliquots were removed from the supernatant for quantitative determination of amount of unbound compound present.
After sampling, the supernatant was aspirated and the red cell ghost pellet was resuspended in 1.0 ml of the PBS-FBS, which was once again sampled as described above. This procedure was repeated at least six times, allowing for detection of rapidly released compounds and was monitored after times equal to or greater than 24 hours to allow for the detection of more slowly released compounds. For the determination of the amount of compound present in each sample, the 20 ul aliquots were extracted into 3.0 ml of n-butanol by shaking. The samples were centrifuged at 3000×g to remove membrane debris and the butanol fractions were assayed for compound concentration. Fluorescent compounds are assayed in this manner using peak excitation and emission wave lengths for the particular compounds being assayed to determine the fluorescence units for each sample.
The determination of the amount of compound present in each sample as described above allows for the calculation of the MRC for each washing or fixed time point. The value is obtained by the following formula: […]
wherein CT represents the amount of compound present (in units determined by the method used to assay the compound) in the total sample and CS represents the amount of compound present in the supernatant sample for that particular time point. The comparison of the MRC values defines criteria for identification of the compounds of this invention, these criteria being: 1) the MRC values determined for each washing steps should have a value of at least about 90 and 2) the percent difference between MRC values over at least a 24 hour time period should be less than about 10%. [drawing 14]
The data provided in Table I below are the results from one experiment and serve as an example of the MRC determination. […]

[4] = test system: rabbit erythrocytes; conditions: iv
Excerpt: *Half life for loss of dye from rabbit erythrocytes after labeling and

[5] = test system: rabbit red blood cell ghosts; assay: Binding of anticoagulant conjugate to rabbit red blood cell ghosts; conditions: 24 h, 37° C.
Experimental: Ghosts were then washed extensively and placed in phosphate buffered saline with lmM EDTA and 5% BSA for 24 h at 37° C. Samples were agitated and a 50 μl aliquot removed from each sample and placed in 200 μl of Triton X-100® in a microtiter plate well (representingtotal suspension fluorescence). The original samples were centrifuged for 10 minutes and a 50 μl sample of the ghost supernatant removed and placed in 200 μl of Triton X-100® (representing free fluorescence in the aqueous phase only). The fluorescence of all samples was determined on a fluorometric microtiter plate reader. Bound fluorescence was determined by subtraction of free from total after correction for background fluorescence from unstained ghosts; the percent free and bound fluorescence was determined by dividing the bound and free fluorescence by total fluorescence, respectively and multiplying by 100.

[6] = test system: lumenal surface of the femoral arteries; assay: Retention at intravascular site; assay type: in vivo, rabbit
Experimental: To determine whether the compounds of the invention will remain at an intravascular site once applied experiments were performed wherein ^125 I-substituted lipophilic cyanine, prepared as described in Example 2 (compound 12, Reaction Scheme 2) was applied to the lumenal surface of the femoral arteries of anesthetized rabbits. The femoral artery was surgically isolated and a small, proximal side branch was cannulated with a short length of PE10 tubing. A 1 cm arterial segment surrounding the side branch was occluded and 20-50μl of a solution containing ^125 I-substituted compound 12 was administered through the cannula to the occluded section and allowed to remain for 5-10 min. The ^125 I-substituted compound was then withdrawn along with the cannula, the side branch was permanently tied, the femoral artery occlusion removed to allow the return of blood flow, and the femoral incision was closed. ^125 I-radioactivity was then monitored at selected times over the next 3 weeks with a Ludium Model 2200 Scaler Ratemeter and a Model 44-17 2 inch crystal with windows optimized for the detection of ^125 I.

[7] = Excerpt: The HPLC system used comprised a Waters Model 600E solvent delivery system with W600E gradient controller, U6K injector and Model 990 photodiode array detector. Chromatography conditions were as follows: Column: Waters Nova-Pak (phenyl, 4 μm, 3.9 mm×15 cm); Mobile phase: Solvent A=Water:Methanol:Acetonitrile:PIC A reagent (Waters) (395:25:80:4), Solvent B=Water:Methanol: Acetonitrile:PIC A reagent (225:25:250:4), Solvent C=Methanol:Water:PIC A reagent (490:15:4). Gradient conditions: 100% (A) to 60%:40% (A:B) over 20 minutes then to 100% (C) over 10 minutes followed by 100% (C) for 40 minutes. Flow rate: 2 mL/min. Detection: photodiode array from 240-575 nm.
The rate of acid hydrolysis of hydrazone conjugate (19) to produce 7-N-(5-oxopentanoyl) deacetyl colchicine was studied by HPLC at 3 different pH's.
Buffer solutions were prepared according to the procedures described by Gomori, "Methods in Enzymology", 16:138 (1955). HPLC conditions and retention times were the same as described above.
Compound solutions to be studied were prepared by adding 50 μl of hydrazone conjugate solution (1 mg/ml of methanol) to a screw capped vial (1 ml) containing citrate phosphate buffer (200 μl) of the desired pH. The vials were kept closed and the solutions were analysed by HPLC (350 nm detection) for conjugate (19) remaining and 7-N-(5-oxopentanoyl) deacetyl colchicine produced at 24 h and 48 h. Each hplc injection was […].

[8] = test system: A10 cells; assay: Antiproliferative activity on A10 cells after one 10 minute application; assay type: cell-based, rat; conditions: for Cell count: 10 μM, 10 minute application
Experimental: To determine the antiproliferative action of the compounds of invention, in vitro studies were performed using A10 cells, a clonal cell line originally derived from the thoracic aorta of embryonic rats, that proliferate as myoblasts and develop into cells which phenotypically resemble smooth muscle cells (B. Kimes and B. Brandt, Exptl. Cell Res. 98:349 (1976). Typically, twelve-well plates were seeded with 2500-10,000 A10 cells/cm^2 in Dulbecco's Modified Eagles Medium (DMEM) with 10% fetal calf serum (FCS) and allowed to adhere and stabilize for 24 hours at 37° C. Test substances were then prepared in the required concentrations in appropriate cell binding media and, after aspirating the plating medium, applied to the individual wells at 37° C. for a period of only 10 minutes. The treatments were then aspirated, the wells washed 4 times with non-treatment containing medium and then placed in non-treatment containing DMEM with 10% FCS for the duration of the study. At various times after treatment application, triplicate wells were aspirated, the aspirate saved, and the wells treated with 0.25 ml of 0.25% trypsin to release the adherent cells. The enzymatic action of trypsin on the cells was stopped by addition of excess protein (1.75 ml DMEM+10% FCS), the aspirate returned to the wells, and an aliquot of the resultant cell suspension counted in a Coulter Counter (Model ZM with Sampling Stand II). Cell count was normalized to cells per square centimeter of growing area (surface area of well bottom).

[9] = labeling 10 μM (compound 7), 20 μM (conjugate, FITC-heparin)

% Bound ([5]; 5% BSA): 94.96% | % Free ([5]; 5% BSA): 5.04%
Compound: CCCCCCCCCCCCCCCCCCCCCC[N+]1=C(C=CC=C2N(CCCCCCCCCCCCCC)c3ccc(CNC=O)cc3C2(C)C)C(C)(C)c2ccccc21 [Compound 7, 1'-docosanyl-5(N-formylaminomethyl)-1-tetradecyl-3,3,3',3'tetramethylindocarbocyanine iodide]
Fluorescence intensity, supernatant [5, 9]: 73.69 | Fluorescence intensity, suspension [5, 9]: 1439.00

Applied material (radioactivity) remaining within the artery ([6]; after first 24 hour, mean±sem, n=4): 34.0±10.9% | Elimination half-life after the first 24 hours ([6]; after first 24 hours): 365.8 ± 69.4 h | Initial elimination half-life ([6]; first 24 hour): 18.5 ± 6.96 h | Time detectable after application ([6]; rabbit, in vivo): at least 3 weeks
Compound: CCCCCCCCCCCCCCCCCCCCCCN1C(=CC=CC2=[N+](CCCCCCCCCCCCCC)c3ccccc3C2(C)C)C(C)(C)c2cc([125I])ccc21 [Compound 12, N-docosanyl-N'-tetradecyl-5-iodo-3,3,3',3'-tetramethylindocarbocyanine chloride]

MBS (% of max.) [2]: 48 ± 3.1 % of max. | In vivo membrane half-life [4]: 33.6 h
Compound: CCCCCCCCCCCCCCCCCCCCCC[N+]1=C(C=CC=C2N(CCCCCCCCCCCC)c3ccccc3C2(C)C)C(C)(C)c2ccccc21 [P]
MRC# (at 24 hr.) [3]: 65 ± 2.0

Second part, the compound before the results:

Compound: CC(C)[C@@H]1NC(=O)[C@H](CCCCN)NC(=O)[C@@H](Cc2c[nH]c3ccccc23)NC(=O)[C@H](Cc2ccc(O)cc2)NC(=O)[C@@H](NC(=O)[C@H](N)Cc2ccc3ccccc3c2)CSSC[C@@H](C(=O)N[C@H](C(N)=O)[C@@H](C)O)NC1=O [Angiopeptin]
Myointimal thickening [1]: reduction of myointimal thickening

Compound: CCCCCCCCCCCC[N+]1=C(C=CC=C2N(CCCCCCCCCC)c3ccccc3C2(C)C)C(C)(C)c2ccccc21 [Compound 0]
MBS (% of max.) [2]: 19 ± 3.5 % of max. | MRC# (at 24 hr.) [3]: 30 ± 4.7 | In vivo membrane half-life [4]: < 24 h

Compound: CCCCCCCCCCCCCCCCCCCCCCN1C(=CC=CC2=[N+](CCCCCCCCCCCCCC)c3ccc(CNC(=O)CCCC(=O)NN=CCCCC(=O)N[C@H]4CCc5cc(OC)c(OC)c(OC)c5-c5ccc(OC)c(=O)cc54)cc3C2(C)C)C(C)(C)c2ccccc21 [Compound 19, 7-N(5-oxopentanoyl) deacetyl colchicine Lipophilic Cyanine Hydrazone Conjugate]
Free colchicine hydrolysis product detected by HPLC ([7]; pH 4.21, 5.74, 7.35): the expected aidehyde, compound 18 | Cleavage of (19) to produce (18) ([7]; pH 4.21, 24 hours): 78% | Cleavage of (19) to produce (18) ([7]; pH 4.21, 48 hours): 100% | Cleavage of (19) to produce (18) ([7]; pH 5.74, 24 hours): 45% | Cleavage of (19) to produce (18) ([7]; pH 5.74, 48 hours): 100% | Cleavage of (19) to produce (18) ([7]; pH 7.35, 24 hours): 36% | Cleavage of (19) to produce (18) ([7]; pH 7.35, 48 hours): 77% | Cell count ([8]; day 0): 2291.12 cells per square centimeter | Cell count ([8]; day 1): 2625.33 cells per square centimeter | Cell count ([8]; day 2): 2369.45 cells per square centimeter | Cell count ([8]; day 3): 2206.27 cells per square centimeter | Cell count ([8]; day 6): 8800.26 cells per square centimeter | Cell count ([8]; day 7): 10895.65 cells per square centimeter | Cell-associated fluorescence ([8]; flow cytometry): significant cell-associated fluorescence

Compound: CN(C/C=C/C#CC(C)(C)C)Cc1cccc2ccccc12 [Terbinafine]
Myointimal thickening [1]: reduction of myointimal thickening

Compound: interferon-gamma
Myointimal thickening [1]: reduction of myointimal thickening
